Structures can show the parent of a compound that is named as a salt.
Assays:
[1] = Comparative brain/liver uptake of 14C-labeled compounds (Brain Penetration Index); details: for increase of 5-min BPI over GABA: 5 min after s.c. injection, relative to GABA
Procedure: The criterion used herein for measuring the extent to which a compound, from which the radical A is derived, crosses the blood-brain barrier is based on the uptake of this compound by the brain relative to its uptake by the liver. […] Measurements of the quantity of a compound present in brain and liver at 5 minutes after a subcutaneous (s.c.) injection were used to calculate a Brain Penetration Index (BPI), with the equation: [formula]
This is the amount of the compound present per gram of brain tissue as a percent of the amount per gram of liver tissue.
This procedure has the advantage that even for a sparingly soluble lipid ester, which tends to remain largely at the site of the injection and slowly diffuse into the circulation, its level in the liver will reflect the amount available rather than the initial dose injected.
The uptake of a ^14C-labeled compound into brain was compared with the uptake into liver of the same animal.
All determinations were carried out at 5 min after injection. The volumes of the injected doses into mice (body weight, 18-24 g) for the i.v., i.p., and s.c. doses were 0.15, 0.3 and 0.5 ml, respectively. […] Each tissue was homogenized in 8 ml of pyridine in a glass homogenizer.
Each labeled test compound was injected as a solution in 0.5 ml of saline (Compound 7) or in 25% propylene glycol in water (Compounds 1, 5, 6) subcutaneously (s.c.) into young adult Balb/c mice (18-24 g body weight). After 5 min (or longer) animals were sacrificed and the brain and liver removed, weighed and homogenized respectively in 8 ml and 10 ml of brain protein solvent (1 % (w/v) sodium dodecyl sulfate in 6 M urea and 19 mM EDTA, pH 7.4, 0.03 M phosphate). Aliquots (0.5 ml) of the homogenates were mixed with 10 ml of Aquasol 2 (New England Nuclear) and counted in a Beckman liquid scintillation counter. The total uptake of each compound per g brain and liver tissue was calculated. The proportion of uptake into brain as compared to liver (100%) of the same animal was designated as the Brain Penetration Index (BPI), expressed as a percentage typically at 5 min after injection.
Each of the ^14C-labeled Compounds 26, 28 and 30 were in 125 µl of the propylene glycol diluted with water up to 0.5 ml, and then injected subcutaneously into test Balb/c mice (20 ± 2 g weight). After 5 min the animals were sacrificed and the brain and liver were removed, weighed and homogenized in 8 ml and 10 ml of brain protein solvent, respectively. Next 0.5 ml aliquots were mixed with 10 ml of Aquasol 2 (New England Nuclear Corp., Boston, MA) and counted in a Beckman liquid scintillation counter. The data for the label in each tissue were used to calculate the total quantity of the compound present in brain and liver per gram of tissue. The ratio of the amount in brain as a percent of that present in liver at 5 min was taken as the Brain Penetration Index (BPI). Measurements at longer uptake times were also obtained to evaluate the accumulation of the compounds in the brain.

[2] = n-Octanol/water partition coefficient; format: physicochemical; details: n-octanol/water, 5 ml n-octanol / 5 ml water, stirring 18 hours; read-out: KOW: Octanol/Water Partition Coefficient (converted)
Procedure: A Partition Coefficient was defined by the equation: [formula] representing the amount of the ester taken up per ml of n-octanol relative to the amount of the same compound taken up per ml of water.
The n-octanol/water partition coefficients were obtained from measurements of the distribution of 1, 3, 5 and 6 pmol quantities of each ^14C-labeled compound into a mixture of 5 ml of n-octanol and 5 ml water. At each concentration, the amount of labeled compound in the aqueous and n-octanol phases was calculated from the amount of radioactive material present after stirring for 18 hours.

[3] = test system: general motor activity of mice; test: General locomotor activity of mice (Stoelting electronic activity monitor); format: in vivo, Balb/c mice; details: for activity in the general motor activity test (in words): i.p., mice
Procedure: The effect of intraperitoneal (i.p.) injections of test compounds on the general motor activity of mice during a 60-min period was determined in a Stoelting electronic activity monitor. Dose-response curves were obtained from which the half-maximally effective values were calculated and the results are shown in Table V.
The compounds were dissolved in 25% (vols.) propylene glycol in water and injected i.p. into Balb/c mice (18-24 g). Dose-response measurements were obtained for 6 animals per dose or time point. Activity was monitored for 60 min using a Stoelting Electronic Activity Monitor (EAM) apparatus to assess the general motor activity of the animals.
The general locomotor activity of mice was measured in the Stolting activity monitor apparatus during 60 min after an intraperitoneal (i.p.) injection of a test compound.

[4] = test system: bicuculline-induced epileptic seizures; test: Delay of onset of bicuculline-induced seizures (anticonvulsant activity); format: in vivo, mouse; details: for In Vivo Delay of Time of Onset of Bicuculline-induced seizures: graded 0-5; for effect on bicuculline-induced seizures (in words): mice
Procedure: In a second behavioral test, the ability of a substance to prevent or delay the onset of biculline-induced epileptic seizures was measured. […] At 24 hr after i.p. injection of the cholesteryl derivative at a dose of 30 mg/kg (64 pmol/kg), the onset of seizures was delayed by 30% after an acute i.p. injection of bicuculline at 0.3 mg/kg. […] The dexamethasone and butyl esters had no effect.
The compounds were also injected i.p. at 1, 6 and 24 hr before the administration of bicuculline (0.3 mg/kg) s.c. The latency to the onset of generalized tonic-clonic epileptic seizures and the protection against the lethality of bicuculline were measured and evaluated as a percent of the data for vehicle-injected controls. No significant changes were obtained at the 1 hr and 6 hr time points. At the 24 hr time, however, some compounds delayed while others accelerated the onset of seizures.
The effect of the compound to delay the onset of a bicuculline-induced seizures was evaluated.
The ability of a substance to delay the onset of bicuculline-induced epileptic seizures in the mouse was measured (Table X). […] At 24 hr after i.p. injection of the cholesteryl derivative (6) at a dose of 30 mg/kg (64 pmol/kg), the onset of seizures was delayed by 30% (as compared to saline controls) after an acute i.p. injection of bicuculline at 0.3 mg/kg. […] The dexamethasone and butyl esters had no effect on seizures in mice.

[5] = test system: self-stimulation reward; test: Self-stimulation reward test; format: in vivo, rats; details: for Max. DSSR: DSSR 0.3 designated as 100%
Source text: The procedure measured the capacity of a given pharmacological agent to inhibit rats from receiving stimulating currents provided by electrodes implanted in their brains (lateral hypothalamus), Stellar et al, Pharmacol. Biochem. & Behav., 18,433-442 (1983). The animals will press a lever to receive a current from the implanted electrode in preference to all else. The rate at which they press the lever depends on the intensity of the current (reward) that is being produced by the electrode. The intensity of the current is varied by raising the frequency at which […] pulses (0.1 msec duration) are delivered during a 0.5 sec time span in response to a lever press. A plot of the log of the frequency of the delivered pulses vs. the rate of lever presses for an animal gives a self-stimulation reward curve. Injection of a drug which has a tranquilizing effect shifts such a curve to higher frequencies. The shift of this curve (measured at the halfway point) gives a parameter which is expressed as the "Depression of the Self-Stimulation Reward" or DSSR. The maximum DSSR value obtained for the most powerful neutoleptics and tranquilizing compounds tested so far, seldom exceeds 0.3. This is designated as 100%. In the actual tests, the maximum DSSR value obtained for a given dose of drug and the half-life time [duration half-life (DHL)] of its return to 0% (the control state) was measured.

[6] = in vivo; details: mouse, brain, sc
[7] = test system: CAI pyramidal cells; format: cell-based, Sprague-Dawley rats
Procedure: Transverse slices of hippocampus (350-375 µm thick) were prepared from Sprague-Dawley rats (200-300 g) and transferred onto a nylon net fixed over a 1.5 ml superfusion chamber. The slices were maintained at 32-33°C in a humidified atmosphere of 95%/5% 02/C02. The standard medium consisted of (in mM): NaCl, 125; KCI, 3.5; CaC12,2; MgS04, 1.5; NaH2PO4, 1; NaHC03, 24; and glucose, 10. Low chloride medium was prepared by substituting sodium isethionate for sodium chloride.
Extracellular potentials were recorded with NaCI-fitted micropipettes, and stimulus pulses were applied through bipolar platinum wire electrodes. The various drugs were dissolved in fresh medium (without glucose and phosphate) and applied to the surface of the tissue by pressure ejection from a micropipette, Sakai, Swartz and Woody, (1979).
The inhibitory effectiveness of various compounds was investigated by measuring their ability to suppress the extracellular population spike recorded from the hippocampal CAI pyramidal layer and elicited by stimulation of stratum radiatum axons. The amplitude of this monosynaptic population spike is essentially proportional to the number of pyramidal cells discharging in response to a stimulus volley, Andersen, Bliss and Skrede, (1971).
The various compounds were applied as droplets to the pyramidal layer approximately 75 µm from the recording electrode. The volume of a single drug application was about 300 picoliters. […] The volume ejected from each pipette was calibrated prior to use by measuring the diameter of the ejected droplet and adjusting the duration of the pressure pulse (usually 100-500 msec) until a standard diameter was reached. A constant droplet volume was used throughout the experiments. Where dose-response information was required, several pipettes with different drug concentrations were used.

[8] = 70 μmol/kg s.c., 5 min, mice, mean ± S.E.M. (n = 3)
[9] = Table IX summary, 5-min Brain Penetration Index
[10] = Table IV, 380 μmol/kg s.c., 5 min, mice, mean ± S.E.M. (n = 3)
[11] = 84 mg/kg, 24 hr pretreatment, bicuculline 0.3 mg/kg, mean ± SEM, n ≥ 6

## C[C@@H]1C[C@H]2[C@@H]3CCC4=CC(=O)C=C[C@]4(C)[C@@]3(F)[C@@H](O)C[C@]2(C)[C@@]1(O)C(=O)COC(=O)CCCN [Compound 7, Dexamethasone-21-gamma-aminobutyrate]
[1]; [8]
  (BRAIN): 8.7 ± 1 nmol/g
  (LIVER): 10.8 ± 2 nmol/g
  BPI: 81 ± 20%
[1]; 70 μmol/kg s.c., 15 min, mice
  (BRAIN): 21.5 nmol/g
  (LIVER): 29.0 nmol/g
  BPI: 74%
[1]
  increase of 5-min BPI over GABA: 81 fold
[1]; [9]
  BPI: 81
[2]
  logP at 18 h: -0.0458
[3]; graded 0-5
  In Vivo Inhibition of General Motor Activity: 0
[3]
  activity in the general motor activity test (in words): not active
[4]
  In Vivo Delay of Time of Onset of Bicuculline-induced seizures: 0
  effect on bicuculline-induced seizures (in words): no effect

## 1-Linolenoyl 2-gamma-aminobutyryl 3-gamma-vinyl-gamma-aminobutyryl glycerol dihydrochloride [Compound 40]
[5]; dose 16 μm/kg, Depression of the Self-Stimulation Reward
  Max. DSSR: 90
[5]; dose 16 μm/kg, duration half-life of return to 0%
  DHL: 30 min

## CCCCOC(=O)CCCN [Compound 1, Butyl Ester of GABA]
[1]; 380 μmol/kg s.c., 60 min, mice
  (BRAIN): 14.4 nmol/g
  (LIVER): 13.7 nmol/g
  BPI: 105%
[1]
  increase of 5-min BPI over GABA: 74 fold
[1]; [10]
  (BRAIN): 19.2 ± 0.3 nmol/g
  (LIVER): 26.0 ± 1.6 nmol/g
  BPI: 74 ± 3.4%
[1]; [9]
  BPI: 74
[6]
  remaining at 1 h: 4%
[3]
  activity in the general motor activity test (in words): not active
[4]
  In Vivo Delay of Time of Onset of Bicuculline-induced seizures: 1
  effect on bicuculline-induced seizures (in words): no effect

## C=CC(N)CCC(=O)O (stereo not shown) [gamma-vinyl GABA, reference compound]
[5]; dose 31 μm/kg
  Max. DSSR: 0
[5]; dose 31 μm/kg, duration half-life
  DHL: 0

## C=CC(N)CCC(=O)O[C@H]1CC[C@@]2(C)C(=CC[C@H]3[C@@H]4CC[C@H]([C@H](C)CCCC(C)C)[C@@]4(C)CC[C@@H]32)C1 (stereo partly shown) [Compound 33, Cholesteryl gamma-vinyl gamma-aminobutyrate hydrochloride]
[5]; dose 40 μm/kg
  Max. DSSR: 83
[5]; dose 40 μm/kg, duration half-life of return to 0%
  DHL: 1440 to 2880 min

## CC(C)CCC[C@@H](C)[C@H]1CC[C@H]2[C@@H]3CC=C4C[C@@H](O)CC[C@]4(C)[C@H]3CC[C@]12C [cholesterol, reference compound]
[4]; [11]
  Onset of seizures: % Saline Control: 118 ± 6 % Saline Control
  Survival Time: % Saline Control: 110 ± 7 % Saline Control

## NCc1cc(=O)[nH]o1 [muscimol]
[7]
  duration of effect relative to a comparably effective dose of GABA: roughly 100 times
  effect with picrotoxin (10 µM) in the medium or low chloride medium: little effect
[7]; concentration in the drug pipette
  doses required relative to GABA for effects of comparable magnitude: nearly a thousand-fold lower
[7]; droplets applied to the CAI pyramidal layer
  inhibition of the evoked population spike: dose-dependent inhibition

— patent EP0133795B1 (THE McLEAN HOSPITAL CORPORATION, priority 1983, dated 1985)
